Source: patent publication US9765054B2, “Histone deacetylase inhibitors and compositions and methods of use thereof” (CHDI Foundation, Inc., priority 2011, dated 2017)

Experiments:
[1] = molecular target: human catalytic domain HDAC4 protein (Homo sapiens, UniProt P56524, A743G/DEL730-739/DEL742-742); test: Inhibition of HDAC4 catalytic domain enzymatic activity, Boc-Lys(Tfa)-AMC substrate, fluorescence; conditions: Class IIa selective substrate Boc-Lys(Tfa)-AMC, read-out: Biochemical HDAC-4 IC50;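 further: trypsin releases AMC from deacetylated substrate, fluorescence tracks enzyme activity, 15 min reaction at 37 °C, 100% activity defined by DMSO-only control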
[2] = system: cellular histone deacetylase enzymatic activity in Jurkat E6-1 cells; test: Inhibition of cellular HDAC activity, Boc-Lys(Tfa)-AMC substrate, in Jurkat E6-1 cells; assay type: cell-based; conditions: Homo sapiens, Class IIa selective substrate Boc-Lys(Tfa)-AMC
Excerpt: The potency of Class IIa Histone Deacetylase (HDAC) inhibitors is quantified by measuring the cellular histone deacetylase enzymatic activity using the Class IIa selective substrate, Boc-Lys(Tfa)-AMC. After penetration in Jurkat E6-1 cells, the substrate is deacetylated to Boc-Lys-AMC. After cell lysis and cleavage by trypsin, the fluorophore AMC is released from the deacetylated substrate only. The fluoresence of the sample is directly related to the histone deacetylase activity in the sample.
Jurkat E6.1 Cell Culture and Plating.
Jurkat E6.1 cells are cultured according to standard cell culture protocols in Jurkat E6.1 Growth Media (RPMI without phenol red, 10% FBS, 10 mM HEPES, and 1 mM Sodium Pyruvate). Jurkat E6.1 cells are counted using a Coulter Counter and resuspended in Jurkat E6.1 growth media at a concentration of 75,000 cells/35 μl. 35 μl or 75,000 cells is seeded into Greiner microtitre assay plates. The plates are then incubated at 37° C. and 5% CO2 while other assay components are being prepared.
Serially Dilute HDAC Inhibitor Compounds.
Serial dilutions of the HDAC inhibitors and control reference compound (1-(5-(3-((4-(1,3,4-oxadiazol-2-yl)phenoxy)methyl)-1,2,4-oxadiazol-5-yl)thiophen-2-yl)-2,2,2-trifluoroethanone) are made by first resuspending the lyophilized compound to a final concentration of 10 mM in 100% DMSO. Stocks of 70 μl aliquots of the 10 mM compound in DMSO are prepared and stored at −20° C. From one stock aliquot of each compound to be tested and the reference compound, a 16-point serial dilution is prepared according to Table 7 using a 125 μl 16-channel Matrix multi-channel pipette.
2 μl (200×) of each diluted solution and each control (full activity: 100% DMSO alone or full inhibition 1 mM) is stamped into V-bottom polypropylene 384-well compound plates using either the Bravo, Janus, or […] 16-channel Matrix multi-channel pipette. Each well with the 200× compound solution is diluted 1:20 by the addition of 38 μl Jurkat assay buffer+DMSO (9.5% DMSO, RPMI without phenol red, 0.09% FBS, 9 mM Hepes, and 0.9 mM Sodium Pyruvate equilibrated to room temperature)
Prepare 5× (500 μM) Boc-Lys(Tfa)-AMC Substrate.
5× (500 μM) substrate is prepared just prior to the addition to the assay. The 5× substrate is prepared by diluting a 100 mM Boc-Lys(Tfa)-AMC in DMSO solution 1:200 by adding it drop-wise to Jurkat assay medium (RPMI without phenol red, 0.1% FBS, 10 mM Hepes, and 1 mM Sodium Pyruvate equilibrated to 37° C.) while vortexing at slow speed to prevent precipitation.
10 ml of 3× lysis buffer is prepared with 8.8 ml of 3× stock lysis buffer (50 mM Tris-HCl, pH 8.0, 137 mM NaCl, 2.7 mM KCl, 1 mM MgCl2, 1% Nonidet P40 Substitute equilibrated to room temperature) and 1.2 ml of 3 mg/ml Trypsin equilibrated to room temperature.
5 μl of each solution of 1:20 diluted compound from above is transferred to the Greiner microtitre assay plates with 75,000 cells/well using the Bravo. Cells are then incubated for 2 hours at 37° C. and 5% CO2. The assay is then started by adding 10 μl of 5× (500 μM) substrate to the assay plate using either the Bravo or 16-channel Matrix multi-channel pipette. The cells are then incubated for 3 hours at 37° C. and 5% CO2. Next, 25 μl of 3× lysis buffer is added to each well using either the 125 μl 16 channel pipette or the Bravo. The assay plate is then incubated overnight (15-16 hours) at 37° C. and 5% CO2. The following day, the plates are shaken on an orbital shaker for 1 minute at 900 rpm. Finally the top read fluorescence (Excitation: 355 nm, Emission: 460 nm) is measured using PerkinElmer EnVision.

`O=C(NO)[C@@H]1[C@H](c2ccccc2)[C@H]1c1cccc(N2CCC(N3CCCC3)CC2)c1` (racemic) [Compound 56g, (1R*,2R*,3R*)—N-Hydroxy-2-phenyl-3-(3-(4-(pyrrolidin-1-yl)piperidin-1-yl)phenyl)cyclopropanecarboxamide] showed an IC50 [1] of 390 nM and an IC50 [2] of 2180 nM.
In the case of `Cc1ncc(-c2ccc([C@H]3[C@H](C(=O)NO)[C@@H]3c3ccccc3F)cc2)o1` [Compound 75b, (1S,2R,3R)-2-(2-Fluorophenyl)-N-hydroxy-3-(4-(2-methyloxazol-5-yl)phenyl)cyclopropanecarboxamide], the IC50 [1] is reported as 50 nM and the IC50 [2] is reported as 470 nM.
`O=C(NO)[C@@H]1[C@H](c2ccccc2)[C@H]1c1ccccc1Br` (racemic) [Compound 16a, (1R*,2R*,3R*)-2-(2-Bromophenyl)-N-hydroxy-3-phenylcyclopropanecarboxamide] gave an IC50 [1] of 620 nM and an IC50 [2] of 6530 nM.
Work on `Cc1ccc([C@H]2[C@H](C(=O)NO)[C@@H]2c2ccccc2)cc1` (racemic) [Compound 18c, (1R*,2R*,3R*)—N-Hydroxy-2-phenyl-3-p-tolylcyclopropanecarboxamide] yielded an IC50 [1] of 150 nM and an IC50 [2] of 2250 nM.
With `O=C(NO)[C@@H]1[C@H](c2ccccc2)[C@H]1c1ccc(-n2cccn2)cc1` (racemic) [Compound 65, (1R*,2R*,3R*)-2-(4-(1H-pyrazol-1-yl)phenyl)-N-hydroxy-3-phenylcyclopropanecarboxamide] the IC50 [1] was 90 nM and the IC50 [2] was 970 nM.
Compound `O=C(NO)[C@@H]1[C@H](c2ccccc2)[C@H]1c1ccc(-c2nccc(C(F)(F)F)n2)cc1` (racemic) [Compound 50d, (1R*,2R*,3R*)-2-(4-(4-Trifluoromethylpyrimidin-2-yl)phenyl)-N-hydroxy-3-phenylcyclopropanecarboxamide] has an IC50 [2] of 880 nM.
With `O=C(NO)[C@@H]1[C@H](c2ccccc2)[C@H]1c1ccc2c(c1)OC(F)(F)O2` [Compound 28e, (1R,2R,3R)-2-(2,2-Difluorobenzo[d][1,3]dioxol-5-yl)-N-hydroxy-3-phenylcyclopropanecarboxamide] the IC50 [1] was 120 nM and the IC50 [2] was 2030 nM.
`O=C(NO)[C@@H]1[C@H](c2ccccc2)[C@H]1c1ccc(-c2cccc(OCc3ccccc3)c2)cc1` [Compound 54a, (1R,2R,3R)-2-(3′-(Benzyloxy)-[1,1′-biphenyl]-4-yl)-N-hydroxy-3-phenylcyclopropanecarboxamide] was tested, and the IC50 [1] was 990 nM and the IC50 [2] was 8850 nM.
`O=C(NO)[C@@H]1[C@H](c2ccc(F)cc2)[C@H]1c1ccnc(C2CC2)c1` [Compound 28d, (1R,2R,3R)-2-(2-Cyclopropylpyridin-4-yl)-3-(4-fluorophenyl)-N-hydroxycyclopropanecarboxamide] showed an IC50 [1] of 120 nM and an IC50 [2] of 790 nM.
In the case of `O=C(NO)[C@H]1[C@H](c2ccccc2)[C@H]1C1CCCCC1` (racemic) [Compound 5, (1R*,2R*,3R*)-2-Cyclohexyl-N-hydroxy-3-phenylcyclopropanecarboxamide], the IC50 [1] is reported as 6220 nM and the IC50 [2] is reported as 36900 nM.
For `O=C(NO)[C@H]1[C@H](c2ccnc(C3CC3)c2)[C@H]1c1ccccc1F` [Compound 28c, (1S,2R,3R)-2-(2-Cyclopropylpyridin-4-yl)-3-(2-fluorophenyl)-N-hydroxycyclopropanecarboxamide], the IC50 [1] was 40 nM and the IC50 [2] was 530 nM.
`O=C(NO)[C@@H]1[C@H](c2ccccc2)[C@H]1c1ccccc1F` (racemic) [Compound 11b, (1R*,2R*,3R*)-2-(2-Fluorophenyl)-N-hydroxy-3-phenylcyclopropanecarboxamide] was tested, and the IC50 [1] was 320 nM and the IC50 [2] was 1830 nM.
For `O=C(NO)[C@@H]1[C@H](c2ccccc2)[C@H]1c1ccc(-n2ccnc2)cc1` (racemic) [Compound 42, (1R*,2R*,3R*)-2-(4-(1H-imidazol-1-yl)phenyl)-N-hydroxy-3-phenylcyclopropanecarboxamide], the IC50 [1] was 200 nM and the IC50 [2] was 1630 nM.
With `O=C(NO)[C@@H]1[C@H](c2cccc(F)c2)[C@H]1c1ccnc(C2CC2)c1` [Compound 100b, (1S,2R,3R)-2-(2-Cyclopropylpyridin-4-yl)-3-(3-fluorophenyl)-N-hydroxycyclopropanecarboxamide] the IC50 [1] was 20 nM and the IC50 [2] was 420 nM.
`O=C(NO)[C@@H]1[C@H](c2ccccc2)[C@H]1c1cccc(Br)c1` (racemic) [Compound 16b, (1R*,2R*,3R*)-2-(3-Bromophenyl)-N-hydroxy-3-phenylcyclopropanecarboxamide] showed an IC50 [1] of 70 nM and an IC50 [2] of 1410 nM.
`O=C(NO)[C@@H]1[C@H](c2ccccc2)[C@H]1c1ccc(-c2ncc(C3CC3)cn2)cc1` (racemic) [Compound 50c, (1R*,2R*,3R*)-2-(4-(5-Cyclopropylpyrimidin-2-yl)phenyl)-N-hydroxy-3-phenylcyclopropanecarboxamide] showed an IC50 [1] of 220 nM and an IC50 [2] of 810 nM.
Work on `O=C(NO)[C@@H]1[C@H](c2ccccc2)[C@H]1c1ccc(-c2ncc(Cl)cn2)cc1` [Compound 50j, (1R,2R,3R)-2-(4-(5-Chloropyrimidin-2-yl)phenyl)-N-hydroxy-3-phenylcyclopropanecarboxamide] yielded an IC50 [2] of 420 nM.
`O=C(NO)[C@@H]1[C@H](c2ccccc2)[C@H]1c1ccc(-c2cnc(-c3ccccc3)o2)cc1` (racemic) [Compound 48, (1R*,2R*,3R*)—N-Hydroxy-2-phenyl-3-(4-(2-phenyloxazol-5-yl)phenyl)cyclopropanecarboxamide] was tested, and the IC50 [1] was 280 nM and the IC50 [2] was 1260 nM.
Work on `O=C(NO)[C@@H]1[C@H](c2ccccc2)[C@H]1c1ccn2cc(C(F)(F)F)nc2c1` [Compound 109, (1R,2R,3R)—N-Hydroxy-2-phenyl-3-(2-(trifluoromethyl)imidazo[1,2-a]pyridin-7-yl)cyclopropanecarboxamide] yielded an IC50 [1] of 230 nM and an IC50 [2] of 2500 nM.
In the case of `Cc1cnc(-c2ccc([C@H]3[C@H](C(=O)NO)[C@@H]3c3ccccc3)cc2)s1` [Compound 102, (1R,2R,3R)—N-hydroxy-2-(4-(5-methylthiazol-2-yl)phenyl)-3-phenylcyclopropanecarboxamide], the IC50 [1] is reported as 40 nM and the IC50 [2] is reported as 440 nM.
In the case of `O=C(NO)[C@@H]1[C@H](c2ccccc2)[C@H]1c1ccc(NS(=O)(=O)C2CC2)cc1` (racemic) [Compound 22, (1R*,2R*,3R*)-2-(4-(cyclopropanesulfonamido)phenyl)-N-hydroxy-3-phenylcyclopropanecarboxamide], the IC50 [1] is reported as 50 nM and the IC50 [2] is reported as 1320 nM.
In the case of `O=C(NO)[C@H]1[C@H](c2ccccc2)[C@H]1c1ccccc1F` (racemic) [Compound 13, (1S*,2R*,3R)-2-(2-Fluorophenyl)-N-hydroxy-3-phenylcyclopropanecarboxamide], the IC50 [1] is reported as 940 nM and the IC50 [2] is reported as 7670 nM.
With `C[C@@]1(C(=O)NO)[C@H](c2ccccc2)[C@H]1c1ccc(-c2ncc(F)cn2)cc1` (racemic) [Compound 63, (1R*,2S*,3S*)-2-(4-(5-Fluoropyrimidin-2-yl)phenyl)-N-hydroxy-1-methyl-3-phenylcyclopropanecarboxamide] the IC50 [1] was 270 nM and the IC50 [2] was 1550 nM.
Work on `O=C(NO)[C@@H]1[C@H](c2ccccc2)[C@H]1c1ccc(-c2ccc(-n3c4ccccc4c4ccccc43)cc2)cc1` (racemic) [Compound 54b, (1R*,2R*,3R*)-2-(4′-(9H-carbazol-9-yl)-[1,1′-biphenyl]-4-yl)-N-hydroxy-3-phenylcyclopropanecarboxamide] yielded an IC50 [1] of 5660 nM and an IC50 [2] of 50000 nM.
Work on `Cc1cnc(-c2ccc([C@H]3[C@H](C(=O)NO)[C@@H]3c3ccccc3)cc2)nc1` (racemic) [Compound 50k, (1R*,2R*,3R*)—N-Hydroxy-2-(4-(5-methylpyrimidin-2-yl)phenyl)-3-phenylcyclopropanecarboxamide] yielded an IC50 [2] of 480 nM.
